In article doi:10.1101/2025.03.23.644840v2 (biorxiv, 2025) one finds Kd data, which are given here for 2 compounds.

Read-outs that look alike come from different tables or passages of the source.

A word on the Kd: it is the concentration at which binding is half-saturated. Low values mean a tighter complex, high ones a looser complex.

Assay in all cases: isothermal titration calorimetry
One assay deals with ΔAnc1. Further details: species or system synthetic construct. The following applies: 25 °C; 20 mM HEPES, 150 mM NaCl, 2% glycerol, pH 8; 1:1 model.
The next assay deals with ecLacI (Escherichia coli, UniProt P03023). It is filed as binding.
Sequence of ecLacI (P03023 whole entry): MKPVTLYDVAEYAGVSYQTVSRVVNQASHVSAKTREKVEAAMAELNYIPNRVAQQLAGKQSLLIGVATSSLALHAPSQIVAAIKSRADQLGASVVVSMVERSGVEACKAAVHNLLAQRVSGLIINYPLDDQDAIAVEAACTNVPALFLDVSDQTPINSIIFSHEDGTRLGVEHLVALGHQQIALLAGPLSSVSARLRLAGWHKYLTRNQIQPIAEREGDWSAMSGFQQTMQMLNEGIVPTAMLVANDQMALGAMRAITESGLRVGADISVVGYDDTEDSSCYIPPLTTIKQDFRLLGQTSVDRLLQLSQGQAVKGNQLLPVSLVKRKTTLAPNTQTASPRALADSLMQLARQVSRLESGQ
For a further assay, the target named is Anc4. It is filed as binding, synthetic construct. The following applies: 25 °C; 20 mM HEPES, 150 mM NaCl, 2% glycerol, pH 8; 1:1 model.
In the next assay the target is Anc1. Type of assay: binding, synthetic construct. The conditions noted are these: 25 °C; 20 mM HEPES, 150 mM NaCl, 2% glycerol, pH 8; 1:1 model.
The target in the next assay is ΔAnc4. Details: species or system synthetic construct. The conditions noted are these: 25 °C; 20 mM HEPES, 150 mM NaCl, 2% glycerol, pH 8; 1:1 model.
In a further assay the target is Anc3. Type of assay: binding, synthetic construct. The following applies: 25 °C; 20 mM HEPES, 150 mM NaCl, 2% glycerol, pH 8; 1:1 model.
Another assay deals with Anc2. Type of assay: binding, synthetic construct. The following applies: 25 °C; 20 mM HEPES, 150 mM NaCl, 2% glycerol, pH 8; 1:1 model.

On to `C[C@H]1OC(O)[C@H](O)[C@@H](O)[C@H]1O` (stereo partly drawn) [D-fucose], for which the Kd on ΔAnc1 stood at 420 µM; on ecLacI (25 °C, 20 mM HEPES, 150 mM NaCl, 2% glycerol, pH 8, 1:1 model), 37000 µM; at Anc4, 15000 µM; at Anc1, 127 µM.
For `CO[C@@H]1O[C@H](CO)[C@H](O)[C@H](O)[C@H]1O` [BMDG], the Kd at ecLacI was 306 µM; at ΔAnc4, 430 µM; on Anc3, 2500 µM; on Anc4 it was 550 µM; at Anc1, 4000 µM; on Anc2 it was 2200 µM.
